{
  "source": "patent US20130303788A1",
  "about": "“METHOD OF PRODUCING BIPHENOLIC COMPOUND, NOVEL BIPHENYL COMPOUND AND SYNTHESIS METHOD THEREOF, AND PHARMACEUTICAL COMPOSITION FOR TREATING PARKINSON'S DISEASE” (Tzu Chi University, priority 2012, published 2013)",
  "key": {"[1]": {"tested_on": "inflammatory pain", "conditions": "Lin Yi-Ruu et al. (2007); cited from earlier work"}, "[2]": {"tested_on": "mouse model of PD (6-OHDA unilateral striatal lesion)", "test": "Apomorphine-induced rotation test in 6-OHDA mouse model of PD", "type": "in vivo, NMRI mice", "protocol": "The respective NMRI mouse was anesthetized with ketamine ([…], intraperitoneally). Subsequently, the respective NMRI mouse was placed into a stereotactic frame with nose and ear bars specially designed for mice. 6-hydroxydopamine (6-OHDA) was injected with saline containing 0.02% ascorbic acid (as a vehicle) into the right striatum of the respective NMRI mouse so that unilateral striatal lesion was induced (i.e., damage to dopaminergic neurons in the unilateral striatum was induced). The injection was conducted at a rate of 1 μL/minute using a Hamilton syringe at the following coordinates: AP: −0.9 mm; ML: −1.9 mm; DV: −2.2 mm with respect to bregma, and a final dose of 15 μg was administered. The needle was left standing for 5 minutes after the injection was finished, and was slowly withdrawn.\nThe respective NMRI mouse was allowed to habituate to the ambient environment for 10 minutes before the apomorphine-induced rotation test was performed. Apomorphine was then injected intraperitoneally into the respective NMRI mouse at a dose of 0.5 mg/kg. The respective NMRI mouse was placed in a glass bowl with a diameter of 20 cm and was attached to an automatic rotometer (TSE, Bad Homburg, Germany) via a specially designed harness. Each circular movement exceeding 30° was recorded. The contralateral movements (toward the nonlesioned side) and ipsilateral movements (toward the lesioned side) of the NMRI mice were counted during a period of 60 minutes. The net rotation was calculated according to the following formula:\nwhere A=net rotation • B=the total number of ipsilateral movements during the period of 60 minutes • C=the total number of contralateral movements during the period of 60 minutes 4. Determination of TH (Tyrosine Hydroxylase) Expression Level and iNOS (Inducible Nitric Oxide Synthase) Expression Level: […]\n6-OHDA was injected into NMRI mice according to the method as described in section 2 of General procedures. Product 1 or product 2 was administered intraperitoneally to the respective NMRI mouse at a dose of 5 mg/kg, 1 mg/kg, 0.5 mg/kg, 0.1 mg/kg, or 0.05 mg/kg for 14 consecutive days, starting on Day 7 after the 6-OHDA injection. NMRI mice into which a vehicle (saline containing 0.02% ascorbic acid) was injected (generally according to the method as described in section 2 of General Procedures, except that 6-OHDA was not injected), and which were not treated with product 1 or product 2 after the injection of the vehicle, served as a sham operated control. NMRI mice into which 6-OHDA was injected and which were not treated with product 1 or product 2 after the 6-OHDA injection served as a pathological control. The rotational behavior of the NMRI mice was evaluated using the apomorphine-induced rotation test as described in section 3 of General Procedures on Days 7, 14, and 21 after the 6-OHDA injection."}, "[3]": {"tested_on": "SH-SY5Y human neuroblastoma cells", "test": "Effects on oxidative stress (TBHP or CHP), MTT assay", "type": "cell-based", "conditions": "10 μM for 30 minutes, then CHP 300 μM for 3 hours; vs pathological control; FIG. 9", "protocol": "3-(4,5-Dimethylthiazol-2-yl)-2,5-diphenyltetrazolium bromide (MTT) assay was conducted generally as follows. A MTT solution was added to culture of the cells in the respective well so that a MTT concentration of 0.5 mg/mL was reached, followed by cultivation for 4 hours. The liquid in the respective well was removed, and dimethylsulfoxide (DMSO) was added into the respective well to dissolve formazan dye. Absorbance of the mixture in the respective well at 570 nm (OD570) was measured using an OPTImax microplate reader (Molecular Devices).\nThe SH-SY5Y human neuroblastoma cells were respectively treated with products 1, 2, 3, 4, 5, 7, and 3,3′-diallyl-biphenyl-4,4′-diol (compound 55) (10 μM) for 30 minutes. 3,3′-diallyl-biphenyl-4,4′-diol (compound 55) was prepared from commercially available 4,4′-biphenol (compound 54) generally according to the method as described in Ablard, F. et al., Bioorg. Med. Chem. Lett. 2007, 17, 4428. Subsequently, the SH-SY5Y human neuroblastoma cells were exposed to cumene hydroperoxide (CHP) or tert-butyl hydroperoxide (TBHP) (300 μM, Riedel-de Haen) for 3 hours after the treatment with the respective biphenolic compound of formula (I).\nCell viability was evaluated as follows. The SH-SY5Y human neuroblastoma cells were subjected to the MTT assay as described in section 1 of General Procedures. The relative cell viability (%) was calculated by substituting the absorbance into the following formula:\nwhere D=relative cell viability • E=OD570 of the pathological control, or the SH-SY5Y human neuroblastoma cells treated with the respective biphenolic compound of formula (I) • F=OD570 of the normal control The obtained data were subjected to the statistical analysis as described in section 5 of General Procedures."}},
  "data": [
    {"smiles": "C=CCc1ccc(O)c(-c2ccc(O)c(CC=C)c2)c1", "note": "[product 1, 5,3′-Diallyl-biphenyl-2,4′-diol]", "values": [
      {"measurement": "alleviation of inflammatory pain in an animal model", "setting": "[1]", "value": "effective in alleviating inflammatory pain"},
      {"measurement": "unilateral rotations (apomorphine-induced), subchronic post-treatment, 0.1 mg/kg", "setting": "[2]; 0.1 mg/kg i.p., 14 consecutive days starting Day 7 after 6-OHDA, FIG. 13", "value": "not a low dose of product 1"},
      {"measurement": "unilateral rotations (apomorphine-induced), subchronic post-treatment, 0.5 mg/kg", "setting": "[2]; 0.5 mg/kg i.p., 14 consecutive days starting Day 7 after 6-OHDA, FIG. 13", "value": "significantly inhibited unilateral rotations"},
      {"measurement": "unilateral rotations (apomorphine-induced), subchronic post-treatment, 1 mg/kg", "setting": "[2]; 1 mg/kg i.p., 14 consecutive days starting Day 7 after 6-OHDA, FIG. 13", "value": "significantly inhibited unilateral rotations"},
      {"measurement": "contralateral movements induced by apomorphine, subchronic treatment", "setting": "[2]; 5 mg/kg or 10 mg/kg i.p. for 14 consecutive days after 6-OHDA injection, FIG. 11", "value": "significantly reduced the contralateral movements induced by apomorphine"},
      {"measurement": "apomorphine-induced rotation behavior after single administration", "setting": "[2]; 5 mg/kg or 10 mg/kg i.p. once, 30 minutes before 6-OHDA, tested one week after 6-OHDA, data not shown", "value": "did not prevent the apomorphine-induced rotation behavior"},
      {"measurement": "prevention of cell death (relative cell viability) after exposure to CHP", "setting": "[3]", "value": "significantly prevented cell death"}
    ]}
  ]
}
